Reference: paper PMC11487561 (ACS Chemical Neuroscience, 2024)

Columns and labels:
4 strains ± S9 = assay: Mini Ames test; format: cell-based
Adrenergic α2A = target: T1, Adrenergic α2A (Homo sapiens, UniProt P08913); assay: Lead Profiling Screen – Eurofins Panlabs; format: binding; details: read-out: % inh at 10 μM
T1 construct: Eurofins Panlabs (contract screen)

human M3 = human M3 (Homo sapiens, UniProt P20309); assay: Calcium mobilization assay, muscarinic selectivity; format: cell-based
Histamine H3 = Histamine H3 (Homo sapiens, UniProt Q9Y5N1); assay: Lead Profiling Screen – Eurofins Panlabs; format: binding; details: read-out: % inh at 10 μM
Calcium Channel N-Type = target: T2, Calcium Channel N-Type (Rattus norvegicus, UniProt Q02294); assay: Lead Profiling Screen – Eurofins Panlabs; format: binding; details: read-out: % inh at 10 μM
T2 construct: Eurofins Panlabs (contract screen)

Endothelin ETA = target: T3, Endothelin ETA (Homo sapiens, UniProt P25101); assay: Lead Profiling Screen – Eurofins Panlabs; format: binding; details: read-out: % inh at 10 μM
T3 construct: Eurofins Panlabs (contract screen)

[1] = target: Leukotriene, Cysteinyl CysLT1 (Homo sapiens, UniProt Q9Y271); assay: Lead Profiling Screen – Eurofins Panlabs; format: binding; details: read-out: % inh at 10 μM
Adrenergic β2 = target: T4, Adrenergic β2 (Homo sapiens, UniProt P07550); assay: Lead Profiling Screen – Eurofins Panlabs; format: binding; details: read-out: % inh at 10 μM
T4 construct: Eurofins Panlabs (contract screen)

Adenosine A2A = target: T5, Adenosine A2A (Homo sapiens, UniProt P29274); assay: Lead Profiling Screen – Eurofins Panlabs; format: binding; details: read-out: % inh at 10 μM
T5 construct: Eurofins Panlabs

Imidazoline I2, Central = assay: Lead Profiling Screen – Eurofins Panlabs; format: binding, rat
Muscarinic M3 = Muscarinic M3 (Homo sapiens, UniProt P20309); assay: Lead Profiling Screen – Eurofins Panlabs; format: binding; details: read-out: % inh at 10 μM
CYP 3A4 = target: T6, CYP 3A4 (Homo sapiens, UniProt P08684); assay: P450 inhibition in pooled human liver microsomes; format: in vitro ADME; details: pooled HLM, NADPH, CYP-specific probe substrates
T6 construct: from tissue; host or cells: pooled human liver microsomes (according to the earlier reading)

[2] = Intrinsic clearance in rat liver microsomes; format: in vitro ADME
Description: Intrinsic Clearance in Rat and Human Liver Microsomes
The in vitro intrinsic clearance (CL int) was investigated in commercially obtained hepatic microsomes from rat and human donors using the substrate depletion (i.e., loss-of-parent vs. time, or t 1/2 method) approach with analyte detection via liquid chromatography-tandem mass spectrometry (LC-MS/MS). For each species, mean %parent remaining values at each time point were calculated from replicates raw data (analyte:IS peak area ratios) and used to determine in vitro t 1/2 and CLint.
Experiments were carried out using a robot-assisted (TECAN model Evo 200). Compound was incubated (1 µM final concentration) in buffer (100 mM potassium phosphate pH 7.4 with 3 mM MgCl2) containing hepatic microsomes (0.5 mg/mL final concentration) from multiple species, discretely, at 37 °C under constant orbital shaking. After 5 minutes (pre-incubation), reactions were initiated by addition of nicotinamide adenine dinucleotide phosphate (NADPH, 1 mM final concentration). At selected time intervals (0, 3, 7, 15, 25, and 45 minutes) post-addition of NADPH, aliquots (50 µL) were taken and placed into a 96-shallow-well plate containing ice cold acetonitrile (150 µL) with carbamazepine (IS, 50 nM). The plates were then centrifuged (3000 rcf at 4 °C) for 10 minutes. The supernatants were transferred to a new 96-shallow-well daughter plate and diluted (1:1 v/v) with water (Milli-Q filtered). The plates were then sealed in preparation for LC-MS/MS analysis (see below).
Raw LC-MS/MS peak area data generated from the assay samples were used to construct natural log-transformed %parent remaining vs. time plots (using t = 0 minute post-NADPH addition sample data as starting point set to 100%). In vitro compound half-life (t 1/2) values were obtained using the following […]
k is the slope from linear regression analysis of the natural log-transformed data (using means from Where all replicates at each time point). Resulting t 1/2 values were then used to calculate hepatic CLint values according to the following equation and with the use of species-specific scale-up factors for liver weight (grams) per total body weight (kg): […]
CLint = in vitro t1/2 x 0.5 mg microsomes x 1 gram liver x kg body wt aScale-up factors used are 45 (rat) and 20 (human).2
Predicted hepatic clearance (CLhep) was calculated using the following equation: […]
Qh represents hepatic blood flow (mL/min/kg): 21 for human, 70 for rat, and 90 for mouse.
Prepared samples were injected (10 µL each) onto an AB Sciex Triple Quad 4500 mass spectrometer system with an Agilent 1260 Infinity II pump and autosampler. Mass spectrometer conditions are described in Table S1. Quantitation of compounds was performed via AB Sciex Multiquant software using the raw analyte:IS peak area ratios. The typical detection range was 0.5 ng/mL to ≥ 5,000 ng/mL utilizing a quadratic equation regression with 1/x2 weighting. […]
Table S1. LC-MS/MS Conditions*
Mobile phase A 0.5% Formic Acid in Water
Mobile phase B 0.5% Formic Acid in Acetonitrile
Gradient Time % Mobile Phase B

Dopamine D2S = target: T7, Dopamine D2S (Homo sapiens, UniProt P14416); assay: Lead Profiling Screen – Eurofins Panlabs; format: binding; details: read-out: % inh at 10 μM
T7 construct: Eurofins Panlabs (contract screen)

human M2 = human M2 (Homo sapiens, UniProt P08172); assay: Calcium mobilization assay, muscarinic selectivity; format: cell-based
Chain of human M2 (P08172 whole entry): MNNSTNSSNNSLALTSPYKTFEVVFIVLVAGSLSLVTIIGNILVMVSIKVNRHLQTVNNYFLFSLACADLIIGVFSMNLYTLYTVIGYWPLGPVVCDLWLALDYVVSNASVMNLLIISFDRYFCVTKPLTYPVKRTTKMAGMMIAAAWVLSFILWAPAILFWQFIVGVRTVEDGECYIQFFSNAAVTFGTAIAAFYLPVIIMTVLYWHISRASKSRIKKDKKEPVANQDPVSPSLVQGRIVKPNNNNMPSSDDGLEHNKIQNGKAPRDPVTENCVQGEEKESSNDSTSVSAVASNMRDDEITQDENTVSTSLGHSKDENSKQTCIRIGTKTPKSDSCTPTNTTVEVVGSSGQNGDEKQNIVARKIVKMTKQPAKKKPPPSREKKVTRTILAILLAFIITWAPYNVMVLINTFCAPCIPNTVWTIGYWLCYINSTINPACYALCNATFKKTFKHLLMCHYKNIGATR

Chain of human M3 (P20309 whole entry): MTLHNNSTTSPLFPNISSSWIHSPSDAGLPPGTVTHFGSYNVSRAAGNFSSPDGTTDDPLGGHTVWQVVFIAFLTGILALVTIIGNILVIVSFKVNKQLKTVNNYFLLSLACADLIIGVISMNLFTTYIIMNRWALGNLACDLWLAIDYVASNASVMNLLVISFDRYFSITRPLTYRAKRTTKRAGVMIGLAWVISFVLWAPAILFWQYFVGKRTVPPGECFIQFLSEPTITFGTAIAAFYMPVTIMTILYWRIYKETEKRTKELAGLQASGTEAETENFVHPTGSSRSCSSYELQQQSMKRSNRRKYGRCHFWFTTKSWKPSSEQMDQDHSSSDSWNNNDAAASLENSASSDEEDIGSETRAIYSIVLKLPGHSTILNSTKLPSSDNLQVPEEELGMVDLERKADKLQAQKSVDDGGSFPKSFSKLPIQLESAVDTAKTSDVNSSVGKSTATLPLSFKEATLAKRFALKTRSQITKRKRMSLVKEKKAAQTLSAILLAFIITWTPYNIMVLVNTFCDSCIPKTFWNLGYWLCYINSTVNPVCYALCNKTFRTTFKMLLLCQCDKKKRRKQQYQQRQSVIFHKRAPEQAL
T5 sequence (P29274 whole entry): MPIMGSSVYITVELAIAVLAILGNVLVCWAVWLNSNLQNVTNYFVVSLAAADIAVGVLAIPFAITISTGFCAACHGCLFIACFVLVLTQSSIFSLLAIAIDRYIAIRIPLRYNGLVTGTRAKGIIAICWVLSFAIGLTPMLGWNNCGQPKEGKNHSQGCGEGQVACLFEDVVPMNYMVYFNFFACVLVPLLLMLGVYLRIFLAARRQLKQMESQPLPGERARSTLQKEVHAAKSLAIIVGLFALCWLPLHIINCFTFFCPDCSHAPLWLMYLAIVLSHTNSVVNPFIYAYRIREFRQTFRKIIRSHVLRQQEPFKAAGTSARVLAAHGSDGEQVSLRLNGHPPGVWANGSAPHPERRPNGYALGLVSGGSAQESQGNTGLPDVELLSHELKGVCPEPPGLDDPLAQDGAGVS
Chain of Leukotriene, Cysteinyl CysLT1 (Q9Y271 whole entry): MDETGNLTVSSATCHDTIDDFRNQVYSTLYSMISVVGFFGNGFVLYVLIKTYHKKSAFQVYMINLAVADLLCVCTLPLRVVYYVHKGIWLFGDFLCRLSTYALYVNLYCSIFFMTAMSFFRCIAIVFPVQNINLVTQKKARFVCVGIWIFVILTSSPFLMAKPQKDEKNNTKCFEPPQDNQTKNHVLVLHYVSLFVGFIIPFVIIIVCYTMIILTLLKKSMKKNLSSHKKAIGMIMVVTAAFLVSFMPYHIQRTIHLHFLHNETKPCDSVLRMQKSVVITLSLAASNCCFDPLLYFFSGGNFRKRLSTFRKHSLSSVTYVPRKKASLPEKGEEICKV
T4 sequence (P07550 whole entry): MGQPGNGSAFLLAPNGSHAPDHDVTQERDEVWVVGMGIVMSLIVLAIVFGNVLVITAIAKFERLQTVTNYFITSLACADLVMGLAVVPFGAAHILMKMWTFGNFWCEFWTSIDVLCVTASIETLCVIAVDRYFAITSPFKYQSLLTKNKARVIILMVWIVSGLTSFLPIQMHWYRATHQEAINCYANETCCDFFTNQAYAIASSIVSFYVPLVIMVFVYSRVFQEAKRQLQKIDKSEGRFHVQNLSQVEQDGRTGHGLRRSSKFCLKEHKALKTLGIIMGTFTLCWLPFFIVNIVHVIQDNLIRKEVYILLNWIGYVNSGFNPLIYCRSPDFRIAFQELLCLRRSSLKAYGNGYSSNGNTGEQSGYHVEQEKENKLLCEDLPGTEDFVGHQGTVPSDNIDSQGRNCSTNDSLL
Chain of Histamine H3 (Q9Y5N1 whole entry): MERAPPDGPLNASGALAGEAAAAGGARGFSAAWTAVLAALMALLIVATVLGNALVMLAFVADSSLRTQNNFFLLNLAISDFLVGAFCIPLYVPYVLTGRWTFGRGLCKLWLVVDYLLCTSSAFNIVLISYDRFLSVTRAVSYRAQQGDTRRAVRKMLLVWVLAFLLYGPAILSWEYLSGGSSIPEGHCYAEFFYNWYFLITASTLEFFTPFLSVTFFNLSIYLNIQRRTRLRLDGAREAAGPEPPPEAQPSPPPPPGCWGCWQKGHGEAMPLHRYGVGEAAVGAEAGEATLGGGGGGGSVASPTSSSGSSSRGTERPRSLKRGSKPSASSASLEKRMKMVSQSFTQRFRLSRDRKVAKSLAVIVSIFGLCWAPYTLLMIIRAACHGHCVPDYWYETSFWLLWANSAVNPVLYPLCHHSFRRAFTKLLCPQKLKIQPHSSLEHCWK
T1 sequence (P08913 whole entry): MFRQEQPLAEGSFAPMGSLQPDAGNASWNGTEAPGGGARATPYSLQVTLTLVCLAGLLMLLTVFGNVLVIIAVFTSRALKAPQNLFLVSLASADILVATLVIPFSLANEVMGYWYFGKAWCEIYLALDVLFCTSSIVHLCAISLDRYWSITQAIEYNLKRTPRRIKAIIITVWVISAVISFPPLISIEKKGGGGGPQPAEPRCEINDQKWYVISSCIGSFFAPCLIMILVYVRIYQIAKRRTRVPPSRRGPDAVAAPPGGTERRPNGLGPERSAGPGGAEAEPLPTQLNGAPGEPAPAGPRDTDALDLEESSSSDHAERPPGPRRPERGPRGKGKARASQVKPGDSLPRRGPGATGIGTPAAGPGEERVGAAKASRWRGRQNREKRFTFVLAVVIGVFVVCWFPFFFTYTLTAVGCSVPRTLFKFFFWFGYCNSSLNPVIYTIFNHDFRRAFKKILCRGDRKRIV
T3 sequence (P25101 21-427): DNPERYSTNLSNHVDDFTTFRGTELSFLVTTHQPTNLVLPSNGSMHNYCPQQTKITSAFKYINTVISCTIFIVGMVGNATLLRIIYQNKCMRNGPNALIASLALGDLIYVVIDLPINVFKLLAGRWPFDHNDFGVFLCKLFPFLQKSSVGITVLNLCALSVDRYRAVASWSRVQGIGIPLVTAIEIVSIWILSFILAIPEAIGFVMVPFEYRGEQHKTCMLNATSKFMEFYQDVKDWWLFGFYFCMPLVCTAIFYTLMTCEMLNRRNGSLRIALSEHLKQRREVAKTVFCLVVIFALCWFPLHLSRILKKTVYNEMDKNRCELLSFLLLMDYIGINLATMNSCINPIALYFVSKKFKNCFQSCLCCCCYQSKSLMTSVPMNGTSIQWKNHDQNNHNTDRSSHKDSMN
T6 sequence (P08684 whole entry): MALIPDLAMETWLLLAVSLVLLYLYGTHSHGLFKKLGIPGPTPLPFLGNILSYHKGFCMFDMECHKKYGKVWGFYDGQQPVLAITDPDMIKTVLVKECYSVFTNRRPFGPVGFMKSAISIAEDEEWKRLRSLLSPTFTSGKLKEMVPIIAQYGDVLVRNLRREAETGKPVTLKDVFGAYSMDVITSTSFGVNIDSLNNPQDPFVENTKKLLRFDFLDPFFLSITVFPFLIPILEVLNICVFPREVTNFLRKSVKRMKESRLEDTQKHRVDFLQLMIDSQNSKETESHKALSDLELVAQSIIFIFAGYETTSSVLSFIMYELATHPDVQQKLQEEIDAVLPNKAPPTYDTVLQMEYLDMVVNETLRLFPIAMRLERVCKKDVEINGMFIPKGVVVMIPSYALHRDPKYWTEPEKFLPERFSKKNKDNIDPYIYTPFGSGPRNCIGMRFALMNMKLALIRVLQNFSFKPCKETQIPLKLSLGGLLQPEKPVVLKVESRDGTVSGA
Chain of Muscarinic M3 (P20309 whole entry): as the sequence (P20309 whole entry) above
T7 sequence (P14416 1-414 isoform P14416-2): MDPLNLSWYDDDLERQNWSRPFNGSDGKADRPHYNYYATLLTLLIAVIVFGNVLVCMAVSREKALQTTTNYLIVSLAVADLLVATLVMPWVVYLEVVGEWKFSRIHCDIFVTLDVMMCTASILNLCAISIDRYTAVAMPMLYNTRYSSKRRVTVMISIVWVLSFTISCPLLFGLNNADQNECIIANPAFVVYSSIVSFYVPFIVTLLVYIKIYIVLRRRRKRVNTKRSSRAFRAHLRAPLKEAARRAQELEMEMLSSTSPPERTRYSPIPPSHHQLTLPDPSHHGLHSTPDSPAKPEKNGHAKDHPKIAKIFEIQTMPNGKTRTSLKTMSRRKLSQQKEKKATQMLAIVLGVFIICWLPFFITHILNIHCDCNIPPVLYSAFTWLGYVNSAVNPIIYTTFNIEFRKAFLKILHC

With `Cc1nc(C)c2c(n1)sc1c(NCc3ccc(C(C)(C)O)cc3)nccc12` [22g] the “Mini Ames test result” value (4 strains ± S9) was “negative”, the inhibition at 10 µM (Adrenergic α2A) was -9% and the “human M3 %Ach Max” value (human M3) was “inactive”. For the same compound, the “human M3 EC50” value (human M3) was “inactive”, the inhibition at 10 µM (Histamine H3) was 25% and the inhibition at 10 µM (Calcium Channel N-Type) was 2%. The inhibition at 10 µM (Endothelin ETA) was -2%, the inhibition at 10 µM [1] was 6% and the inhibition at 10 µM (Adrenergic β2) was -5%. The inhibition at 10 µM (Adenosine A2A) was 28%, the “% inh at 10 μM” value (Imidazoline I2, Central) was -1% and the inhibition at 10 µM (Muscarinic M3) was 4%. For the same compound, the IC50 (CYP 3A4) was 17 µM, the CLint scaled at 1 µM ([2]; pH 7.4, rat liver microsomes) was 4.68 L/h/kg and the “CLhep, rat” value ([2]; predicted hepatic clearance from microsomal CLint) was 2.22 L/h/kg. The inhibition at 10 µM (Dopamine D2S) was -4%, the EC50 (human M2) was 6.2 µM and the “human M2 %Ach Max” value (human M2) was “[46] %Ach Max”.
